Test results from patent US20240109900A1, “AZABICYCLIC SHP2 INHIBITORS” (IRBM S.P.A., priority 2021, published 2024).
Read-outs that look alike come from different tables or passages of the source.

What was measured:
[1] = target: SHP-2 enzyme (Met1-Leu525) (Homo sapiens (Human), UniProt Q06124); experiment: SHP2 inhibition enzymatic assay; type: biochemical; settings: read-out: SHP2wt-IC50
Summary of the method: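 SHP-2 (Met1-Leu525), 0.5 nM, activated with 500 nM IRS1 bis-phosphopeptide, preincubated 30 min with compounds in HEPES pH 7.2 buffer with 5 mM DTT. 75 μM DiFMUP added for 30 min at room temperature, stopped with bpV; fluorescence read. IC50 from four-parameter logistic fit of % inhibition.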

[2] = system: ERK phosphorylation in KYSE-520 cells; experiment: Phospho-ERK cellular assay; type: cell-based; settings: KYSE-520 cells, 2 h at 37° C., phospho-ERK1/2 (Thr202/Tyr204) TR-FRET, read-out: PERK IC50
Summary of the method: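 TR-FRET read-out of ERK1/2 Thr202/Tyr204 phosphorylation was taken after overnight antibody incubation at room temperature. Before that, KYSE-520 cells were treated 2 h at 37 °C with compound dilutions and lysed 30 min. Percent inhibition relative to vehicle and cell-free wells was fitted four-parametrically to give IC50.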

[3] = 0.5 nM SHP-2 activated by 500 nM IRS1 peptide, 75 μM DiFMUP substrate

Sequence of SHP-2 enzyme (Met1-Leu525) (Q06124 1-525): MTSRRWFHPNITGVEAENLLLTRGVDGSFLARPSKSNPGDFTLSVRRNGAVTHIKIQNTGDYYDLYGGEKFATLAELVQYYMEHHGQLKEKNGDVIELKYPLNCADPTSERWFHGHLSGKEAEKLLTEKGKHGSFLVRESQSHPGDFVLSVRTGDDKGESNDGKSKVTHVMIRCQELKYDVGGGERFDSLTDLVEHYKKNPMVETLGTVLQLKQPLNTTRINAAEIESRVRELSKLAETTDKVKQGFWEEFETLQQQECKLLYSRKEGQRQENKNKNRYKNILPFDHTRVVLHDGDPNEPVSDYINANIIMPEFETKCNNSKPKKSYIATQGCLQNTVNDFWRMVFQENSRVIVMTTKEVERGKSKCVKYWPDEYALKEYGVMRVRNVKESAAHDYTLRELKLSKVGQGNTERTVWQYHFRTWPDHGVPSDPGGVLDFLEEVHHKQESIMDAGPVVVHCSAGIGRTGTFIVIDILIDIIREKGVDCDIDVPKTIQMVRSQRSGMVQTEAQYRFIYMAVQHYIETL

Row | IC50 [1, 3] [nM] | IC50 ([2]; Homo sapiens, KYSE-520, 2 h) [nM] | IC50 [2] [nM] | SMILES | IC50 [1] [nM] | IC50 ([2]; Homo sapiens) [nM]
1 | < 500 | < 1000 |  | N#Cc1ccc(-c2n[nH]c3nc(N4CC[C@@H]5[C@H](C4)[C@@]5(CN)c4ccccc4F)cnc23)c(Cl)c1 [Example 245, 4-(6-((1S,6R,7R)-7-(aminomethyl)-7-(2-fluorophenyl)-3-azabicyclo[4.1.0]heptan-3-yl)-1H-pyrazolo[3,4-b]pyrazin-3-yl)-3-chlorobenzonitrile] |  | 
2 | < 500 | < 1000 |  | Cc1ccc2c(-c3n[nH]c4nc(N5CCC6C(C5)C6(CN)c5cc(C)on5)cnc34)cccc2n1 (stereo not drawn) [Example 25, (7-(5-methylisoxazol-3-yl)-3-(3-(2-methylquinolin-5-yl)-1H-pyrazolo[3,4-b]pyrazin-6-yl)-3-azabicyclo[4.1.0]heptan-7-yl)methanamine] |  | 
3 | < 500 | < 1000 |  | Cn1cc2c(Cl)c(-c3n[nH]c4nc(N5CC[C@@H]6[C@H](C5)[C@@]6(CN)c5cc(F)ccc5F)cnc34)ccc2n1 [Example 369, ((1S,6R,7R)-3-(3-(4-chloro-2-methyl-2H-indazol-5-yl)-1H-pyrazolo[3,4-b]pyrazin-6-yl)-7-(2,5-difluorophenyl)-3-azabicyclo[4.1.0]heptan-7-yl)methanamine] |  | 
4 | < 500 | < 1000 |  | NC[C@]1(c2ccccc2F)[C@@H]2CCN(c3cnc4c(-c5ccnc(N)n5)n[nH]c4n3)C[C@@H]21 [Example 163, 4-(6-((1S,6R,7R)-7-(aminomethyl)-7-(2-fluorophenyl)-3-azabicyclo[4.1.0]heptan-3-yl)-1H-pyrazolo[3,4-b]pyrazin-3-yl)pyrimidin-2-amine] |  | 
5 | < 500 | < 1000 |  | NC[C@]1(c2ccccc2F)[C@@H]2CCN(c3cnc4c(C#Cc5ccccc5F)n[nH]c4n3)C[C@@H]21 [Example 334, ((1S,6R,7R)-7-(2-fluorophenyl)-3-(3-((2-fluorophenyl)ethynyl)-1H-pyrazolo[3,4-b]pyrazin-6-yl)-3-azabicyclo[4.1.0]heptan-7-yl)methanamine] |  | 
6 | < 500 | < 1000 |  | Cc1nc([C@@]2(CN)[C@@H]3CN(c4cnc5c(-c6ccc7nn(C)cc7c6Cl)n[nH]c5n4)C[C@@H]32)cs1 [Example 485, ((1R,5S,6r)-3-(3-(4-chloro-2-methyl-2H-indazol-5-yl)-1H-pyrazolo[3,4-b]pyrazin-6-yl)-6-(2-methylthiazol-4-yl)-3-azabicyclo[3.1.0]hexan-6-yl)methanamine] |  | 
7 | > 3000 |  | > 5000 | Cc1nc(N2CC[C@@H]3[C@H](C2)[C@@]3(CN)c2cc(F)ccc2F)cc(=O)n1-c1cccc(Cl)c1Cl [Example 411, 6-((1S,6R,7R)-7-(aminomethyl)-7-(2,5-difluorophenyl)-3-azabicyclo[4.1.0]heptan-3-yl)-3-(2,3-dichlorophenyl)-2-methylpyrimidin-4(3H)-one] |  | 
8 |  |  |  | NCC1C2CCN(c3nc4nc(Sc5cccnc5C(F)(F)F)cnc4[nH]3)CC12 (stereo not drawn) [Example 68, (3-(5-((2-(trifluoromethyl)pyridin-3-yl)thio)-1H-imidazo[4,5-b]pyrazin-2-yl)-3-azabicyclo[4.1.0]heptan-7-yl)methanamine] | < 500 | > 5000
9 | < 500 | < 1000 |  | Cc1csc(C2(CN)C3CCN(c4cnc5c(-c6cccc(Cl)c6Cl)n[nH]c5n4)CC32)n1 (stereo not drawn) [Example 77, (3-(3-(2,3-dichlorophenyl)-1H-pyrazolo[3,4-b]pyrazin-6-yl)-7-(4-methylthiazol-2-yl)-3-azabicyclo[4.1.0]heptan-7-yl)methanamine] |  | 
10 | < 500 | < 1000 |  | Cc1csc(C2(CN)C3CCN(c4cnc5c(-c6cccnc6C(F)(F)F)n[nH]c5n4)CC32)n1 (stereo not drawn) [Example 90, (7-(4-methylthiazol-2-yl)-3-(3-(2-(trifluoromethyl)pyridin-3-yl)-1H-pyrazolo[3,4-b]pyrazin-6-yl)-3-azabicyclo[4.1.0]heptan-7-yl)methanamine] |  | 
11 | < 500 | > 5000 |  | CN(C#N)C(=O)c1ccc(-c2n[nH]c3nc(N4CC[C@@H]5[C@H](C4)[C@@]5(CN)c4ccccc4F)cnc23)c(Cl)c1 [Example 356, 4-(6-((1S,6R,7R)-7-(aminomethyl)-7-(2-fluorophenyl)-3-azabicyclo[4.1.0]heptan-3-yl)-1H-pyrazolo[3,4-b]pyrazin-3-yl)-3-chloro-N-cyano-N-methylbenzamide] |  | 
12 | < 500 | < 1000 |  | NC[C@]1(c2ccccc2F)[C@@H]2CCN(c3cnc4c(-c5ccc6ncnn6c5)n[nH]c4n3)C[C@@H]21 [Example 327, ((1S,6R,7R)-3-(3-([1,2,4]triazolo[1,5-a]pyridin-6-yl)-1H-pyrazolo[3,4-b]pyrazin-6-yl)-7-(2-fluorophenyl)-3-azabicyclo[4.1.0]heptan-7-yl)methanamine] |  | 
13 | < 500 | < 1000 |  | NC[C@]1(c2ccccc2F)[C@@H]2CCN(c3cnc4c(-c5ccnc(-c6cnco6)c5Cl)n[nH]c4n3)C[C@@H]21 [Example 263, ((1S,6R,7R)-3-(3-(3-chloro-2-(oxazol-5-yl)pyridin-4-yl)-1H-pyrazolo[3,4-b]pyrazin-6-yl)-7-(2-fluorophenyl)-3-azabicyclo[4.1.0]heptan-7-yl)methanamine] |  | 
14 | < 500 | < 1000 |  | Cc1cc([C@@]2(CN)[C@@H]3CCN(c4cnc5c(-c6ccc(OC(F)(F)F)c7ncccc67)n[nH]c5n4)C[C@@H]32)no1 [Example 126, ((1S,6R,7S)-7-(5-methylisoxazol-3-yl)-3-(3-(8-(trifluoromethoxy)quinolin-5-yl)-1H-pyrazolo[3,4-b]pyrazin-6-yl)-3-azabicyclo[4.1.0]heptan-7-yl)methanamine] |  | 
15 | < 500 | > 5000 |  | CN(C)Cc1ccc(-c2n[nH]c3nc(N4CC[C@@H]5[C@H](C4)[C@@]5(CN)c4ccccc4F)cnc23)c2cccnc12 [Example 192, 1-(5-(6-((1S,6R,7R)-7-(aminomethyl)-7-(2-fluorophenyl)-3-azabicyclo[4.1.0]heptan-3-yl)-1H-pyrazolo[3,4-b]pyrazin-3-yl)quinolin-8-yl)-N,N-dimethylmethanamine] |  | 
16 | < 500 | < 1000 |  | CC(=O)Oc1c(F)cc(-c2n[nH]c3nc(N4CC[C@@H]5[C@H](C4)[C@@]5(CN)c4ccccc4F)cnc23)cc1F [Example 359, 4-(6-((1S,6R,7R)-7-(aminomethyl)-7-(2-fluorophenyl)-3-azabicyclo[4.1.0]heptan-3-yl)-1H-pyrazolo[3,4-b]pyrazin-3-yl)-2,6-difluorophenyl acetate] |  | 
17 | < 500 | > 5000 |  | NC[C@]1(c2ccccc2F)[C@@H]2CCN(c3cnc(Sc4ccc(C(N)=O)c5ncccc45)c(N)n3)C[C@@H]21 [Example 525, 5-((3-amino-5-((1S,6R,7R)-7-(aminomethyl)-7-(2-fluorophenyl)-3-azabicyclo[4.1.0]heptan-3-yl)pyrazin-2-yl)thio)quinoline-8-carboxamide] |  | 
18 | < 500 | < 1000 |  | NC[C@]1(c2ncccc2F)[C@@H]2CCN(c3cnc4c(-c5ccc(OC(F)(F)F)c6ncccc56)n[nH]c4n3)C[C@@H]21 [Example 144, ((1S,6R,7S)-7-(3-fluoropyridin-2-yl)-3-(3-(8-(trifluoromethoxy)quinolin-5-yl)-1H-pyrazolo[3,4-b]pyrazin-6-yl)-3-azabicyclo[4.1.0]heptan-7-yl)methanamine] |  | 
